Reference: patent US10376589B2, “Method for the treatment of a solid tumour” (The University of Sydney, priority 2011, dated 2019)

Key:
Type in all cases: cell-based, human
DLD-1 colon cancer cells = assay: MTT cytotoxicity assay, 72 hrs; conditions: DLD-1, MTT; for IC50: Homo sapiens
Method: (§1) Human DLD-1 colon cancer cells and human PA-1 ovarian cancer cells were obtained from the American Type Culture Collection (Manassas, Va., USA). Cells were maintained in complete media (Advanced DMEM (Invitrogen) and supplemented with 2% foetal bovine serum (Sigma) and 2 mM Glutamax™ (Invitrogen)) at 37° C. in a humidified, 5% CO2 atmosphere. Spheroids were formed by plating 1.5×10^5 cells/ml onto agarose coated 96 well imaging plates (BD Biosciences) and the cells allowed to aggregate for 72 hrs at 37° C. in a humidified, 5% CO2 atmosphere resulting in the formation of single spheroid per well.
(§2) Active compounds and/or nanoparticles were diluted as required in cell media immediately prior to the assay. Cytotoxicity was determined using the MTT assay as follows. 1×10^5 cells were seeded onto each well of flat bottomed 96-well plates and allowed to attach overnight. Solutions of compounds+/−nanoparticles were added to triplicate wells at concentrations spanning a 4-log range and incubated for 72 hrs. MTT (3-(4, 5-dimethylthiazolyl-2)-2,5-diphenyltetrazolium bromide) (1.0 mM) was added to each well and were incubated for a further 4 hrs. The culture medium was removed from each well, DMSO (150 μL) was added, the plate shaken for 5 seconds and the absorbance measured immediately at 600 nm in a Victor^3V microplate reader (Perkin Elmer). IC50 values were determined as the drug concentration that reduced the absorbance to 50% of that in untreated control wells. At least three independent experiments were performed for each compound with triplicate readings in each experiment.

[1] = tested on: PA-1 ovarian cancer cells; assay: MTT cytotoxicity assay, 72 hrs; conditions: PA-1, MTT
Method: as §1, §2

DLD-1 spheroids [2] = assay: Cisplatin accumulation in spheroids by atomic absorption spectroscopy; conditions: cisplatin 6 ppm without iron oxide particles, 48 hours incubation
Method: as §1
DLD-1 spheroids prepared as per example 25 were dosed as with 100 μl of solution of complete media containing cisplatin and iron oxide nanoparticles from examples 1 and 2 to yield a final concentration of both cisplatin and iron oxide of 6 ppm. The spheroids with iron oxide particles and cisplatin were replaced in the incubator and maintained at 37° C. in a 5% CO2 atmosphere. After 48 hours incubation, the free cisplatin and nanoparticles in the media were washed with excess phosphate buffered saline.

DLD-1 spheroids [3] = assay: Confocal imaging of fluorescent active compound diffusion into spheroids
Method: as §1
(§3) (a) To the suspension of the 3 day old spheroids from example 25, 100 μl of a solution containing nanoparticles incomplete media was added to each spheroid, to yield a final concentration of particles of 10 ppm in 200 μl total volume. he spheroids were replaced in an incubator at 37° C., 5% CO2. […]
DLD-1 spheroids from example 25 were either dosed with NP2 (example 2), which are particles coated with a stabiliser containing a phosphate anchoring group or NP19 or NP23 (examples 19 and 23), which are particles coated with a stabiliser that has no anchoring portion as per example 27b. The spheroid was then imaged by confocal microscopy (as per example 28) to visualise doxorubicin fluorescence.

PA-1 spheroids = assay: Spheroid outgrowth assay
Method: as §1
as §3, with “CO2. After 24 hours incubation, the nanoparticles in the media were removed by washing with excess phosphate buffered saline prior to further experimentation.” for “CO2.”
Spheroids from example 25 were treated as per example 27b and 27c. […] Widefield fluorescence images of the brightfield and Hoechst 33342 stained nuclei were taken of the cells that had grown out from the spheroid (Olympus CellR). To quantitate the outgrowth, the number of nuclei within a 60° angle from the edge of the spheroid was counted. […]

## CC(=O)O[C@H]1C(=O)[C@@]2(C)[C@H]([C@H](OC(=O)c3ccccc3)[C@]3(O)C[C@H](OC(=O)[C@H](O)[C@@H](NC(=O)c4ccccc4)c4ccccc4)C(C)=C1C3(C)C)[C@]1(OC(C)=O)CO[C@@H]1C[C@@H]2O [Paclitaxel]
DLD-1 colon cancer cells; result in words
  72 hr IC50: indeterminable*
[1]; result in words
  72 hr IC50: indeterminable*

## O=c1[nH]cc(F)c(=O)[nH]1 [5-Fluorouracil]
DLD-1 colon cancer cells
  IC50: 10000 nM
[1]; Homo sapiens
  IC50: 10000 nM

## N.N.[Cl][Pt][Cl] [Cisplatin]
[1]
  IC50: 600 nM
DLD-1 spheroids [2]
  concentration of cisplatin in the spheroids: 0.20 ppb

## O=C1c2c(O)ccc(O)c2C(=O)c2c(NCCNCCO)ccc(NCCNCCO)c21 [Mitoxantrone]
DLD-1 colon cancer cells
  IC50: 40 nM
[1]; Homo sapiens
  IC50: 20 nM
DLD-1 spheroids [3]; mitoxantrone alone
  mitoxantrone diffusion into the spheroid: approximately 70 μm
PA-1 spheroids; PA-1 spheroids
  effectiveness, co-administration versus administration of active compound delayed 24 hours: requires the co-administration of nanoparticles
PA-1 spheroids; active compound co-administered with nanoparticles (examples 2, 3, 4, 5)
  effectiveness in PA-1 compared to DLD-1 spheroids: significantly more effective

## COc1cccc2c1C(=O)c1c(O)c3c(c(O)c1C2=O)C[C@@](O)(C(=O)CO)C[C@@H]3O[C@H]1C[C@H](N)[C@H](O)[C@H](C)O1 [Doxorubicin]
DLD-1 colon cancer cells
  IC50: 1000 nM
[1]; Homo sapiens
  IC50: 1000 nM
DLD-1 spheroids [3]; doxorubicin alone
  doxorubicin diffusion into the spheroid: approximately 70 μm
